Values joined by “and” are separate entries in the source; they are usually repeats but may differ in a detail not shown here. Identical values can stand only once.
What was measured:
Flashpoint = assay type: physicochemical
[1] = NOACK vaporization (physical vaporization according to Noack, 250° C. for 1 h); assay type: physicochemical
From the text: Trimethylolpropane esters (TMP-C8/C10) are commercially available from various suppliers and have been used for comparative purposes.

Viscosity index (VI) = assay type: physicochemical
Pour point = assay type: physicochemical
From the text: In addition, the inventive ester oils have a high flashpoint, such that use at relatively high oil sump and component temperatures is possible without risk. In addition, the pour point of the ester oils is relatively low, as a result of which the esters are also usable at low temperatures. For a liquid product, the pour point denotes the temperature at which it is still just free-flowing in the course of cooling. Thus, the inventive ester oils can be used within a broad temperature range.

Kinematic viscosity = assay type: physicochemical
[2] = taken from safety data sheets; cited from earlier work
[3] = taken from safety data sheets; cited from earlier work; remark: listed apart in the source
[4] = taken from safety data sheets; cited from earlier work; remark: listed apart in the source
Density = assay type: physicochemical; conditions: Table 3
[5] = Cold Crank Simulator according to ASTM D5293; assay type: physicochemical
Procedure: For the C12D13 esters and the C10D13 esters, three independently prepared samples were included in each case. For the C9D13 ester and for the D5C18 ester, one sample was analyzed in each case. The “CCS−25° C. [mPas]” and “CCS−20° C. [mPas]” columns each contain figures for the “Cold Crank Simulator” according to the standard ASTM D5293 at −25° C. and −20° C. The HTHS150° C. [mPas] column indicates what is called the “High-Temperature High-Shear Viscosity” (HTHS) at elevated temperature.

## CC(C)CCCCCCCOC(=O)CCCCCCCC(=O)OCCCCCCCC(C)C [Diisodecyl azelate]
Flashpoint; Table 2, base oil
  Flashpoint: 230 °C
[1]; Table 2, base oil
  NOACK: 9.8%
Viscosity index (VI); Table 2, base oil
  VI: 151
Pour point; Table 2, base oil
  Pour point: −65 °C
Kinematic viscosity; Table 2, 40° C.
  η40° C.: 18.1 mm^2/s
Kinematic viscosity; Table 2, 100° C.
  η100° C.: 4.3 mm^2/s

## CC(C)CCCCCCCCCCCCCCC(=O)OCC(C)(C)COC(=O)CCCCCCCCCCCCCCC(C)C [D5C18, neopentyl glycol di(isostearate)]
Flashpoint; Table 3
  Flashpoint: 280 °C
[1]; Table 3, 250° C. for 1 h
  NOACK: 2.0%
Viscosity index (VI); Table 3
  VI: 146
Pour point; Table 3
  Pour point: −44 °C
Kinematic viscosity; Table 3, 40° C.
  η40° C.: 46.0 mm^2/s
Kinematic viscosity; Table 3, 100° C.
  η100° C.: 8.0 mm^2/s
[2]
  Aquatic toxicity OECD 201: >1000 mg/L
[3]
  Aquatic toxicity OECD 202: >1000 mg/L
[4]
  Aquatic toxicity OECD 203: >10 000 mg/l

## CC(C)CCCCCCCOC(=O)CCCCC(=O)OCCCCCCCC(C)C [Diisodecyl adipate]
Flashpoint; Table 2, base oil
  Flashpoint: 235 °C
[1]; Table 2, base oil
  NOACK: 15.5%
Viscosity index (VI); Table 2, base oil
  VI: 148
Pour point; Table 2, base oil
  Pour point: −60 °C
Kinematic viscosity; Table 2, 40° C.
  η40° C.: 14.0 mm^2/s
Kinematic viscosity; Table 2, 100° C.
  η100° C.: 3.10 mm^2/s

## CCCCCCCCCCCCCCOC(=O)CCCCC(=O)OCCCCCCCCCCCCCC [Ditetradecyl adipate]
Viscosity index (VI); Table 2, base oil
  VI: 75
Kinematic viscosity; Table 2, 40° C.
  η40° C.: 34.3 mm^2/s
Kinematic viscosity; Table 2, 100° C.
  η100° C.: 5.1 mm^2/s

## Dodecanediol dipelargonate
[1]; Table 2, base oil
  NOACK: 7.4%
Viscosity index (VI); Table 2, base oil
  VI: 182
Pour point; Table 2, base oil
  Pour point: −38 °C
Kinematic viscosity; Table 2, 40° C.
  η40° C.: 25.25 mm^2/s
Kinematic viscosity; Table 2, 100° C.
  η100° C.: 5.58 mm^2/s

## CC(C)CCCCCCCOC(=O)CCCCCCCCCCC(=O)OCCCCCCCC(C)C [Di(isodecyl) dodecanedioate]
Flashpoint; Table 2, base oil
  Flashpoint: 266 °C
[1]; Table 2, base oil
  NOACK: 3.5% and 4.3%
Viscosity index (VI); Table 2, base oil
  VI: 161 and 162
Kinematic viscosity; Table 2, 40° C.
  η40° C.: 25.7 mm^2/s and 23.4 mm^2/s
Kinematic viscosity; Table 2, 100° C.
  η100° C.: 5.58 mm^2/s and 5.2 mm^2/s

## CC(C)CCCCCCCCCCOC(=O)CCCCC(=O)OCCCCCCCCCCC(C)C [DITA, diisotridecyl adipate, reference compound]
Flashpoint; Table 2, base oil
  Flashpoint: 227 °C
Flashpoint; Table 3
  Flashpoint: 244 °C
[1]; Table 2, base oil
  NOACK: 8-10%
[1]; Table 3, 250° C. for 1 h
  NOACK: 10.0%
Viscosity index (VI); Table 2, base oil
  VI: 139
Viscosity index (VI); Table 3
  VI: 139
Pour point; Table 2, base oil
  Pour point: −51 °C
Pour point; Table 3
  Pour point: −60 °C
Kinematic viscosity; Table 2, 40° C.
  η40° C.: 27.0 mm^2/s
Kinematic viscosity; Table 2, 100° C.
  η100° C.: 5.4 mm^2/s
Kinematic viscosity; Table 3, 40° C.
  η40° C.: 25 mm^2/s
Kinematic viscosity; Table 3, 100° C.
  η100° C.: 5 mm^2/s
Density
  Density: 0.91 g/mL
[5]; −20° C.
  CCS−20° C.: 1455 mPas
[5]; −25° C.
  CCS−25° C.: 2646 mPas
[2]
  Aquatic toxicity OECD 201: >1000 mg/L
[3]
  Aquatic toxicity OECD 202: >100 mg/L

Source: US20130190217A1, “ESTER OILS” (PANOLIN Holding AG, priority 2010, published 2013)
